Results from PMC12538432 (The Journal of Biological Chemistry, 2025).

Experiments:
WT CYP3A4 = molecular target: T1, WT CYP3A4 (Homo sapiens, UniProt P08684); assay: Equilibrium spectral binding titration of WT CYP3A4; conditions: for Spectral ligand type: WT CYP3A4, Soret band shift; for Spectral changes / low-to-high spin transition induced: WT CYP3A4, saturating ligand
T1 construct: made in house
Method: (§1) Fitting was performed using SigmaPlot software (Grafiti LLC).

CYP3A4 S119A = CYP3A4 S119A (Homo sapiens, UniProt P08684, S119A); assay: biochemical
Chain of CYP3A4 S119A (P08684 with tags, fused parts or gaps S119A): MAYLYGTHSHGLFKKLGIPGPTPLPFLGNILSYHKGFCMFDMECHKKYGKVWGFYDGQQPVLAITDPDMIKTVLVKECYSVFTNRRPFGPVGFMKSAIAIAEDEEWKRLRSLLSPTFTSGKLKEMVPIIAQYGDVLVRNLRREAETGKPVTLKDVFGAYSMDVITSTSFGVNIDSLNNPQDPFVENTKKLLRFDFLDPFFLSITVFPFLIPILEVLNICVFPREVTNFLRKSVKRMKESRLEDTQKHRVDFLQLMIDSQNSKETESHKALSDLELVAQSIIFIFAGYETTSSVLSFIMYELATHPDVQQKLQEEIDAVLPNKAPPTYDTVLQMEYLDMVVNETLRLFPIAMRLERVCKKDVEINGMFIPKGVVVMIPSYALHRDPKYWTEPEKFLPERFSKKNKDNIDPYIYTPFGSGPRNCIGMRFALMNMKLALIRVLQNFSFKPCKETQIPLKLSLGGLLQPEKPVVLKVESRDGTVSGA
Method: Equilibrium titrations of CYP3A4 were conducted in a Cary 300 spectrophotometer at an ambient temperature in 0.1 M phosphate, pH 7.4, containing 20% glycerol and 1 mM dithiothreitol (buffer A). […] Spectral dissociation constants (Kd) were determined from fittings to the plots of the maximal absorbance change (peak-to-trough separations in the difference spectra; ΔA) versus ligand concentration. Fitting was performed using SigmaPlot software (Grafiti LLC). Equation used for one-site ligand binding: Y=X/(Kd+X) where Y represents the fraction of the occupied site, X is the total ligand concentration, and Kd is the equilibrium dissociation constant. Equation used for two-site ligand binding: Y=(Amax1·X/(Kd1+X))+(Amax2·X/(Kd2+X)) where Y is total specific binding, X is the total ligand concentration, Amax1 and Amax2 are maximum absorbance changes due to specific binding to the high- and low-affinity sites, and Kd1 and Kd2 are the dissociation constants for the high- and low-affinity sites, respectively.

CYP3A4 R212A = molecular target: T2, CYP3A4 R212A (Homo sapiens, UniProt P08684, R212A); assay: Equilibrium spectral binding titration of CYP3A4 R212A mutant
T2 construct: made in house
T2 sequence (P08684 with tags, fused parts or gaps R212A): as the sequence (P08684 with tags, fused parts or gaps S119A) above, with A99S, R192A counted along it
Method: as §1

[1] = upon intravenous and immediate-release oral administration ref 32; cited from earlier work
CYP3A4 (wild type) = molecular target: T3, CYP3A4 (wild type) (Homo sapiens, UniProt P08684); assay: Equilibrium spectral binding titration of WT CYP3A4; conditions: human, recombinant Δ3-22 truncated wild-type CYP3A4 protein, pH 7.4; WT CYP3A4, second of two binding sites; read-out: Kd2 (two-site binding fitting)
T3 construct: made in house
T3 sequence (P08684 with tags, fused parts or gaps): as the sequence (P08684 with tags, fused parts or gaps S119A) above, with A99S counted along it
Method: as §1

T1 sequence (P08684 with tags, fused parts or gaps): as the sequence (P08684 with tags, fused parts or gaps S119A) above, with A99S counted along it

Row | SMILES | Spectral ligand type (WT CYP3A4) | Spectral ligand type (WT CYP3A4; listed as cannabidiol) | Spectral changes / low-to-high spin transition induced (WT CYP3A4) | Spectral changes / low-to-high spin transition induced (WT CYP3A4; listed as cannabinol) | Kd (CYP3A4 S119A) [nM] | Kd (CYP3A4 R212A) [nM] | Kd (WT CYP3A4) [nM] | half-life [1] [h] | Kd (CYP3A4 (wild type)) [nM] | Observed absorbance change during association to the high-affinity site (WT CYP3A4; WT CYP3A4, share of total absorbance change) [%]
1 | C=C(C)[C@@H]1CCC(C)=C[C@H]1c1c(O)cc(CCCCC)cc1O [CBD, cannabidiol] | type I spectral changes | type I ligands | nearly complete high-spin transition |  |  |  |  |  |  | 
2 | CCCCCc1cc(O)c2c(c1)OC(C)(C)c1ccc(C)cc1-2 [CBN, cannabinol] |  |  | only minor spectral changes | only negligible spectral changes |  |  |  |  |  | 
3 | CCCCCc1cc(O)c2c(c1)OC(C)(C)[C@@H]1CCC(C)=C[C@@H]21 [THC, (−)-trans-Δ^9-tetrahydrocannabinol] | type I ligand |  | nearly complete low-to-high spin transition |  | 3000 ± 300 | 2800 ± 300 | 1900 |  |  | 
4 | NC(=O)C(c1ccccc1)(c1ccccc1)[C@@H]1CCN(CCc2ccc3c(c2)CCO3)C1 [darifenacin] | type I ligand |  |  |  |  |  |  | 3 to 4 | 712000 | ~70
